Each structure is given as a SMILES string.

Broadly, the inhibition is the drop in the measured response relative to a control, in per cent. High values mean a response far below the control, low ones a response near the control. For orientation: Inhibition means the relative decrease from the control value, in per cent. Low readings indicate a weak effect, high ones a strong effect. In general, % inhibition refers to the percentage by which the read-out fell short of the control. Lower therefore signals a weak effect.

For the first assay, the target named is T1, human MAGL (His-hMAGL) (Homo sapiens, UniProt Q99685).
T1 construct: made in house; host or cells: Escherichia coli BL21(DE3)
T1 sequence (Q99685 1-303): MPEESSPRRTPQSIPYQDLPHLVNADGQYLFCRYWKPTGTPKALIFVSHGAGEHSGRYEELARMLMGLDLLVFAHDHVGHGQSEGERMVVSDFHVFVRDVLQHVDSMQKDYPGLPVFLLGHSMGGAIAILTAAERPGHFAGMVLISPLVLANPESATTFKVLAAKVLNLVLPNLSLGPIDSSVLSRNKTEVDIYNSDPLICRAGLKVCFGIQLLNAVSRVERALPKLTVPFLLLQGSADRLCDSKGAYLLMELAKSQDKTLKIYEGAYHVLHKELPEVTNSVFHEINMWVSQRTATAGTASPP
Briefly: Measurement of MAGL inhibitory activity by absorbance. In kind it is biochemical. To be noted: 10 μM test compound; substrate p-nitrophenyl acetate, absorbance at 405 nm. The text has this: (1) Cloning of Human MGLL Encoding MAGL Protein and Construction of Expression Plasmid
Human MGLL cDNA was obtained by PCR using human ORF Clone (DNAForm; Clone ID: 100004585) as a template. For PCR, two kinds of primers: […]
The obtained PCR product was digested with Bam HI and Not I (Takara Bio Inc.), inserted into the Bam HI/Not I site of pET21HH(V) (pET21a (Novagen) inserted with His x6 and TEV Protease recognition sequence) by using Ligation High (Toyobo Co., Ltd.), and introduced into ECOS™ JM109 (Nippon Gene Co., Ltd.), whereby expression plasmid pET21HH(V)/His-hMGLLv2 for Escherichia coli was constructed. (2) Preparation of Recombinant Polyhistidine Tagged Human MAGL Protein
Recombinant His-hMAGL protein was prepared by transforming ECOS™ Competent E. coli BL21(DE3) (Nippon Gene Co., Ltd.) with the pET21HH(V)/His-hMGLLv2 plasmid prepared above. Escherichia coli obtained by transformation was inoculated to 10 mL of LB medium (1% peptone, 0.5% yeast extract, 0.5% sodium chloride, 0.01% ampicillin), and cultured at 30° C. for 16 hr. […] When the turbidity of the culture medium reached about 500 Klett unit, the culture temperature was lowered to 16° C., isopropyl-β-D-thiogalactopyranoside (IPTG) was added to a final concentration of 1 mM, and the mixture was further cultured for 19 hr. After the completion of culture, the culture medium was centrifuged (4° C., 6,000 rpm, 10 min) to give His-hMAGL expression Escherichia coli. Then, His-hMAGL expression Escherichia coli was suspended in 50 mM Tris-HCl (pH 8.0, 100 ml) containing 1% Triton X-100, 20 mM imidazole, 3 mM DTT, 5 U/mL Benzonase (Merck) and 150 mM NaCl, sufficiently cooled, and subjected to sonication at […]=60%, 15 sec/ON, 30 sec/OFF for 3 min using ¾″ solid type crushed horn of BRANSON Digital Sonifier 450 (Central Scientific Commerce, Inc.). Furthermore, the homogenate was centrifuged (4° C., 15,000 rpm, 15 min) and the supernatant was obtained. As the purification apparatus, AKTA explorer 10s (GE Healthcare Japan Corporation) was used at 4° C. To the obtained supernatant was added 5M NaCl to the final salt concentration of 0.3 M, and the mixture was flown through and adsorbed to 5 mL of Ni-NTA Superflow Cartridges (QIAGEN) equilibrated in advance with buffer A (50 mM Tris-HCl (pH 8.0) containing 0.05% TritonX-100, 1 mM DTT, 300 mM NaCl). The column was sufficiently washed with buffer A containing 20 mM imidazole and His-hMAGL was eluted with buffer A containing imidazole at a final concentration of 250 mM. The eluate was further subjected to gel filtration using HiLoad 26/600 Superdex 200 pg (GE Healthcare Japan Corporation) equilibrated with 50 mM Tris-HCl pH 8.0 containing 10% glycerol, 0.05% TritonX-100, 1 mM DTT, 150 mM NaCl. The eluted fraction was concentrated by Amicon Ultra-15 10K (Merck Millipore) to give purified His-hMAGL protein. The protein concentration was measured by BCA Protein Assay Kit (Thermo Fisher Scientific) using BSA as the standard.
(3) Measurement of MAGL Inhibitory Activity
His-hMAGL obtained above was diluted with enzyme reaction buffer (10 mM Tris-HCl, pH 7.5, 1 mM EDTA, 0.1 (w/v) % Triton X-100) to a concentration of 60 ng/mL. […] Thereafter, to each well was added 750 μM p-nitrophenyl acetate (Wako Pure Chemical Industries, Ltd.) by 5 μL, and the absorbance at 405 nm was measured every 2 minutes up to 10 minutes by EnVision (PerkinElmer). The amount of change was obtained by subtracting the absorbance measured immediately after the start of the reaction from the absorbance measured 10 min after the start of the reaction.
MAGL inhibitory rate (%) was calculated according to the following calculation formula. (1−(absorbance change amount of test compound addition group−absorbance change amount of enzyme addition-free group)[…](absorbance change amount of test compound addition-free group−absorbance change amount of enzyme addition-free group))×100
For `O=C(c1cscn1)N1CCN(C2CC(=O)N(c3ccc(Oc4ccccc4)cc3)C2)CC1` (centres unmarked) [Example 6, 1-(4-phenoxyphenyl)-4-(4-(1,3-thiazol-4-ylcarbonyl)piperazin-1-yl)pyrrolidin-2-one], 10 µM produced 93% inhibition.
On the same count and under the same terms, in the case of `N#Cc1cccnc1N1CCN(C2CC(=O)N(c3ccc(Oc4ccccc4)cc3)C2)CC1` (centres unmarked) [Example 7, 2-(4-(5-Oxo-1-(4-phenoxyphenyl)pyrrolidin-3-yl)piperazin-1-yl)nicotinonitrile] it was 87%.
The same measure, in the same setting: in the case of `O=C(c1ccc(Cl)o1)N1CCN(C2CC(=O)N(c3ccc(Oc4ccccc4)cc3)C2)CC1` (centres unmarked) [Example 8, 4-(4-(5-chloro-2-furoyl)piperazin-1-yl)-1-(4-phenoxyphenyl)pyrrolidin-2-one] it was 93%; in that of `O=C(c1nccs1)N1CCN(C2CC(=O)N(c3ccc(Oc4ccc(F)c(F)c4)cc3)C2)CC1` (centres unmarked) [Example 12, 1-(4-(3,4-difluorophenoxy)phenyl)-4-(4-(1,3-thiazol-2-ylcarbonyl)piperazin-1-yl)pyrrolidin-2-one], 98%.
Molecule `COc1cc(Oc2ccccc2)ccc1N1CC(N2CCN(C(=O)c3nccs3)CC2)CC1=O` (centres unmarked) [Example 13, 1-(2-Methoxy-4-phenoxyphenyl)-4-(4-(1,3-thiazol-2-ylcarbonyl)piperazin-1-yl)pyrrolidin-2-one] returned an inhibition at 10 µM of 98%.
The same measure, in the same setting: as for `O=C(c1nccs1)N1CCN(C2CC(=O)N(c3ccc4c(ccn4-c4ccc(F)cc4)c3)C2)CC1` (centres unmarked) [Example 14, 1-(1-(4-Fluorophenyl)-1H-indol-5-yl)-4-(4-(1,3-thiazol-2-ylcarbonyl)piperazin-1-yl)pyrrolidin-2-one], the figure is 98%; as for `O=C(c1nccs1)N1CCN(C2CC(=O)N(c3ccc(Oc4ccccc4)cn3)C2)CC1` (centres unmarked) [Example 18, 1-(5-phenoxypyridin-2-yl)-4-(4-(1,3-thiazol-2-ylcarbonyl)piperazin-1-yl)pyrrolidin-2-one], 96%.
Same read-out and setting: as for `O=C(c1nccs1)N1CCN(C2CC(=O)N(c3ccc(Oc4ccncc4)cc3)C2)CC1` (centres unmarked) [Example 19, 1-(4-(pyridin-4-yloxy)phenyl)-4-(4-(1,3-thiazol-2-ylcarbonyl)piperazin-1-yl)pyrrolidin-2-one], the figure is 91%; as for `O=C(c1nccs1)N1CCN(C2CC(=O)N(c3ccc4ccn(-c5ccc(F)cc5)c4c3)C2)CC1` (centres unmarked) [Example 20, 1-(1-(4-fluorophenyl)-1H-indol-6-yl)-4-(4-(1,3-thiazol-2-ylcarbonyl)piperazin-1-yl)pyrrolidin-2-one], 93%; as for `O=C(N1CCCC1)N1CCN(C2CC(=O)N(c3ccc(Oc4ccccc4)cc3)C2)CC1` (centres unmarked) [Example 21, 1-(4-Phenoxyphenyl)-4-(4-(pyrrolidin-1-ylcarbonyl)piperazin-1-yl)pyrrolidin-2-one], 69%.
Still for that read-out and setting: as for `COc1ccc(Oc2ccc(N3CC(N4CCN(C(=O)c5nccs5)CC4)CC3=O)cc2)cc1` (centres unmarked) [Example 22, 1-(4-(4-methoxyphenoxy)phenyl)-4-(4-(1,3-thiazol-2-ylcarbonyl)piperazin-1-yl)pyrrolidin-2-one], the figure is 97%.

Still in this assay, the particulars now being: 10 μM test compound; substrate p-nitrophenyl acetate, absorbance at 405 nm; 10 µM.
`O=C(c1nccs1)N1CCN(C2CC(=O)N(c3ccc4c(ccn4-c4ccc(F)cc4)c3)C2)CC1` (stereo not drawn) [Example 23, 1-(1-(4-Fluorophenyl)-1H-indol-5-yl)-4-(4-(1,3-thiazol-2-ylcarbonyl)piperazin-1-yl)pyrrolidin-2-one (optical isomer)]: the “Inhibition at 10 μM (%)” value came to 99%.

For a further assay, the target named is T1, human MAGL (His-hMAGL). Briefly: Measurement of MAGL inhibitory activity by mass spectrometry. It is filed as biochemical. To be noted: MAGL inhibitory rate, test compound 10 μM, His-hMAGL, substrate 2-arachidonylglycerol, RapidFire-mass spectrometry. In short, it runs like this: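 His-tagged human MAGL was reacted with 150 μM 2-arachidonylglycerol substrate (stock, added by 5 μL) for 10 min at room temperature, then stopped with formic acid. Arachidonic acid product was quantified by RapidFire–triple-quadrupole MS in negative SRM mode, corrected by arachidonic acid-d8, and converted to percent inhibition.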
In the case of `O=C(c1cscn1)N1CCN([C@@H]2CC(=O)N(c3ccc4c(ccn4-c4cc(C(F)(F)F)ccn4)c3)C2)CC1` [Example 425, (4R)-4-(4-(1,3-Thiazol-4-ylcarbonyl)piperazin-1-yl)-1-(1-(4-(trifluoromethyl)pyridin-2-yl)-1H-indol-5-yl)pyrrolidin-2-one], the inhibition at 10 µM was 100%.
`Cc1ncccc1-c1cc(F)cc(N2C[C@H](N3CCN(c4ncccn4)CC3)CC2=O)c1` [Example 426, (4R)-1-(3-Fluoro-5-(2-methylpyridin-3-yl)phenyl)-4-(4-(pyrimidin-2-yl)piperazin-1-yl)pyrrolidin-2-one]: 10 µM produced 99% inhibition.
On the same count and under the same terms, as for `O=C(c1cscn1)N1CCN([C@@H]2CC(=O)N(c3ccc4c(ccn4-c4cccc(Cl)c4)c3)C2)CC1` [Example 428, (4R)-1-(1-(3-chlorophenyl)-1H-indol-5-yl)-4-(4-(1,3-thiazol-4-ylcarbonyl)piperazin-1-yl)pyrrolidin-2-one], the figure is 100%.
In turn, `O=C(c1cscn1)N1CCN([C@@H]2CC(=O)N(c3ccc4c(c3)CCN4c3ccc(F)cc3)C2)CC1` [Example 429, (4R)-1-(1-(4-fluorophenyl)-2,3-dihydro-1H-indol-5-yl)-4-(4-(1,3-thiazol-4-ylcarbonyl)piperazin-1-yl)pyrrolidin-2-one] registered an inhibition at 10 µM of 100%.
Still for that read-out and setting: in the case of `O=C(c1cscn1)N1CCN([C@@H]2CC(=O)N(c3ccc4c(ccn4-c4ncc(C(F)(F)F)cn4)c3)C2)CC1` [Example 432, (4R)-4-(4-(1,3-Thiazol-4-ylcarbonyl)piperazin-1-yl)-1-(1-(5-(trifluoromethyl)pyrimidin-2-yl)-1H-indol-5-yl)pyrrolidin-2-one] it was 100%; in that of `O=C1CC(N2CCN(c3ncccn3)CC2)CN1c1ccc2c(ccn2-c2ncc(C(F)(F)F)cn2)c1` (centres unmarked) [Example 433, 4-(4-(Pyrimidin-2-yl)piperazin-1-yl)-1-(1-(5-(trifluoromethyl)pyrimidin-2-yl)-1H-indol-5-yl)pyrrolidin-2-one], 83%.
Still for that read-out and setting: as for `CC1C(N2CCN(C(=O)c3nccs3)CC2)CC(=O)N1c1ccc2c(ccn2-c2ncc(C(F)(F)F)cn2)c1` (centres unmarked) [Example 434, 5-methyl-4-(4-(1,3-thiazol-2-ylcarbonyl)piperazin-1-yl)-1-(1-(5-(trifluoromethyl)pyrimidin-2-yl)-1H-indol-5-yl)pyrrolidin-2-one], the figure is 100%.

The assay is the same for the next values; noted with them: MAGL inhibitory rate, test compound 10 μM, His-hMAGL, substrate 2-arachidonylglycerol, RapidFire-mass spectrometry; 10 µM.
Turning to `O=C1CC(N2CCN(c3ncccn3)CC2)CN1c1ccc2c(c1)CCN2c1ncc(C(F)(F)F)cn1` (stereo not drawn) [Example 430, 4-(4-(Pyrimidin-2-yl)piperazin-1-yl)-1-(1-(5-(trifluoromethyl)pyrimidin-2-yl)-2,3-dihydro-1H-indol-5-yl)pyrrolidin-2-one (optical isomer)], the “% inhibition at 10 μM” value stood at 85%.

(Values after patent US9624170B2, “4-(piperrazin-1-yl)-pyrrolidin-2-one compounds as monoacylglycerol lipase (MAGL) inhibitors” (TAKEDA PHARMACEUTICAL COMPANY LIMITED, priority 2013, dated 2017).)
